From ChEMBL document CHEMBL4732213, “Discovery of novel ceramide analogs with favorable pharmacokinetic properties and combination with AKT inhibitor against colon cancer” (Eur J Med Chem, 2021)
The source made the active and inactive calls. The calls are words filed in the database; no cut-off is given here.

How the values were obtained:
HT-29 [1] = experiment: Antiproliferative activity against human HT-29 cells measured after 72 hrs by sulforhodamine B assay; format: functional, cell-based; details: HT-29, 72 h
HT-29 [2] = experiment: Induction of ROS generation in human HT29 cells at 10 uM after 16 hrs by flow cytometric analysis; format: functional, cell-based
[3] = Toxicity in BALB/c nude mouse xenografted with human HT-29 cells assessed as effect on body weight at 50 mg/kg, po measured every 3 day by electronic caliper method; format: organism-based; details: in vivo, 72 h
HT-29 [4] = experiment: Induction of cell cycle arrest in human HT29 cells assessed as accumulation at G0/G1 phase at 10 uM after 24 hrs by PI staining based flow cytometry analysis; format: functional
HT-29 [5] = experiment: Downregulation of c-Myc protein expression level in human HT29 cells at 10 uM incubated for 24 hrs by Western blotting analysis; format: functional, cell-based
HT-29 [6] = experiment: Induction of apoptosis in human HT29 cells at 7.5 uM after 48 hrs by Annexin-V-FITC/PI staining based flow cytometric analysis; format: functional, cell-based
HT-29 [7] = experiment: Induction of apoptosis in human HT29 cells assessed as inhibition of AKT phosphorylation at 10 uM after 48 hrs by Western blotting analysis; format: functional, cell-based
HT-29 [8] = experiment: Antitumor activity against human HT-29 cells xenografted in BALB/c nude mouse assessed as tumor growth inhibition at 50 mg/kg, po Q2D measured every 3 days by electronic caliper method; format: functional; details: HT-29, po, 72 h, time 3 day, read-out: TGI
HT-29 [9] = experiment: Down regulation of p-RB expression in human HT29 cells at 10 uM incubated for 24 hrs by Western blotting analysis; format: functional, cell-based
HT-29 [10] = experiment: Upregulation of p21 protein expression in human HT29 cells at 10 uM incubated for 24 hrs by Western blotting analysis; format: functional, cell-based
[11] = Cmax in BALB/c mouse at 50 mg/kg, ip; format: ADME, organism-based; set-up: route intraperitoneal, dose 50 mg/kg; details: in vivo
[12] = AUC(0 to infinity) in BALB/c mouse at 10 mg/kg, iv; format: ADME, organism-based; set-up: route intravenous, time infinity, dose 10 mg/kg; details: in vivo
[13] = Tmax in BALB/c mouse at 50 mg/kg, ip; format: ADME, organism-based; details: in vivo
[14] = AUC(0 to infinity) in BALB/c mouse at 50 mg/kg, ip; format: ADME, organism-based; set-up: time infinity, route intraperitoneal, dose 50 mg/kg; details: in vivo
[15] = AUC(0 to t) in BALB/c mouse at 50 mg/kg, ip; format: ADME, organism-based; set-up: dose 50 mg/kg; details: in vivo
[16] = AUC(0 to t) in BALB/c mouse at 10 mg/kg, iv; format: ADME, organism-based; set-up: dose 10 mg/kg; details: in vivo
[17] = Half life in BALB/c mouse at 50 mg/kg, ip; format: ADME, organism-based; details: in vivo
[18] = Half life in BALB/c mouse at 10 mg/kg, iv; format: ADME, organism-based; details: in vivo

Row | SMILES | IC50 (HT-29 [1]) | other results
1 | CCCCc1ccc(COc2ccc(CCC(CO)(CO)NC(C)=O)c3ccccc23)cc1 | 27.1 µM | 
2 | CCCCCCCCc1ccc(CCC(CO)(CO)NC(=O)c2ccccc2)c2ccccc12 | 23 µM | 
3 | CCCCCCCCc1ccc(CCC(CO)(CO)NC(=O)C(C)CC)c2ccccc12 (configuration not stated) | 25.6 µM | 
4 | CCCCc1ccc(Oc2ccc(CCC(CO)(CO)NC(C)=O)c3ccccc23)cc1 | > 80 µM | 
5 | CC(=O)NC(CO)(CO)CCc1ccc(O)c2ccccc12 | > 80 µM | 
6 | COc1ccc(CCC(CO)(CO)NC(C)=O)c2ccccc12 | > 80 µM | 
7 | CCCCCCCOc1ccc(CCC(CO)(CO)NC(=O)OCc2ccccc2)c2ccccc12 | 60.5 µM | 
8 | CCCCCCCCc1ccc(C(O)CC(CO)(CO)NC(C)=O)c2ccccc12 (configuration not stated) | 77.9 µM | 
9 | NC1(c2ccc(-c3nc4ccn5c(=O)[nH]nc5c4cc3-c3ccccc3)cc2)CCC1 [MK-2206] |  | Activity (HT-29 [2]): Active; Activity [3]: Non-Toxic; Activity (HT-29 [4]): Active; Activity (HT-29 [5]): inactive; Activity (HT-29 [6]): inactive; Activity (HT-29 [7]): Active; inhibition in vivo at 50 mg/kg (HT-29 [8]): 30.9%; Activity (HT-29 [9]): inactive; Activity (HT-29 [10]): inactive
10 | CCCCCCCCCCCCC/C=C/[C@@H](O)[C@H](CO)NC(C)=O | 25.9 µM | Cmax [11]: 2740 ng/mL; AUC(0-inf) [12]: 1630 ng·h/mL; Tmax [13]: 0.417 h; AUC(0-inf) [14]: 4090 ng·h/mL; AUC(0-t) [15]: 4060 ng·h/mL; AUC(0-t) [16]: 1620 ng·h/mL; half-life [17]: 3.99 h; half-life [18]: 5.08 h

More lines, main results first:

Row | IC50 (HT-29 [1]) | SMILES | other results
11 | 26.4 µM | CCCCCCCCc1ccc(CCC(CO)(CO)NC(=O)CCC)c2ccccc12 | 
12 | > 80 µM | CCCCCCCCCC(=O)NC(CO)(CO)CCc1ccc(CCCCCCCC)c2ccccc12 | 
13 | > 80 µM | CCCCCCCCCCCCCC(=O)NC(CO)(CO)CCc1ccc(CCCCCCCC)c2ccccc12 | 
14 | 21.4 µM | CCCCCCCOc1ccc(CCC(CO)(CO)NC(=O)OC(C)(C)C)c2ccccc12 | 
15 | 21.9 µM | CCCCCCCOc1ccc(CCC(CO)(CO)NC(=O)CCCCC)c2ccccc12 | 
16 | 22.4 µM | CCCCCCCOc1ccc(CCC(CO)(CO)NC(=O)OCCCC)c2ccccc12 | 
17 | 18.8 µM | CCCCCCCOc1ccc(CCC(CO)(CO)NC(=O)CCCCCCC)c2ccccc12 | 
18 | 36.4 µM | C/C=C/C(=O)NC(CO)(CO)CCc1ccc(OCCCCCCC)c2ccccc12 | 
19 | 22 µM | CCCCCCCCc1ccc(CCC(CO)(CO)NC(=O)CCCCCCC)c2ccccc12 | 
20 | 20.3 µM | CCCCCCCCc1ccc(CCC(CO)(CO)NC(=O)CCCCC)c2ccccc12 | 
21 | 36.5 µM | CCCCCCCCc1ccc(CCC(CO)(CO)NC(C)=O)c2ccccc12 | 
